{"source": "patent US10226041B2", "about": "“Compositions and methods for improving the quality of processed sperm” (Inguran, LLC, priority 2011, dated 2019)", "test_system": "sex-sorted sperm cells", "assay": "Percent intact acrosomes (PIA) of sex sorted sperm post-thaw", "type": "cell-based, bovine", "conditions": "for PIA: 3 step", "text": "In the tables below: VAP (average path velocity (μm/s)); VSL (straight-line velocity (μm/s)); VCL (curvilinear velocity (μm/s)); ALH (average lateral head displacement (μm)); BCF (the number of times the sperm head crosses the mean path/s in Hz); STR (percent straight-line sperm motility); LIN (percent linear sperm motility); PIA (percent intact acrosomes); motile (percent motile sperm); and progressive (percent progressively motile sperm).", "note": "Values joined by “and” are separate entries in the source; they are usually repeats but may differ in a detail not shown here. Identical values can stand only once."}
{"molecule": "O=C(O)CCC(=O)C(=O)O", "note": "[AKG, Alpha-ketoglutarate]", "values": [{"measurement": "PIA", "setting": "Holstein 3 hr post-thaw (1st block), .25 mg/ml", "value": 89}, {"measurement": "PIA", "setting": "Holstein 3 hr post-thaw (1st block), .35 mg/ml", "value": 80}, {"measurement": "PIA", "setting": "Holstein 3 hr post-thaw (1st block), .45 mg/ml", "value": 80}, {"measurement": "PIA", "setting": "Holstein 3 hr post-thaw (2nd block), .25 mg/ml", "value": 89}, {"measurement": "PIA", "setting": "Holstein 3 hr post-thaw (2nd block), .35 mg/ml", "value": 80}, {"measurement": "PIA", "setting": "Holstein 3 hr post-thaw (2nd block), .45 mg/ml", "value": 80}, {"measurement": "PIA", "setting": "Holstein 6 hr post-thaw (1st block), .25 mg/ml", "value": 73}, {"measurement": "PIA", "setting": "Holstein 6 hr post-thaw (1st block), .35 mg/ml", "value": 85}, {"measurement": "PIA", "setting": "Holstein 6 hr post-thaw (1st block), .45 mg/ml", "value": 79}, {"measurement": "PIA", "setting": "Holstein 6 hr post-thaw (2nd block), .25 mg/ml", "value": 73}, {"measurement": "PIA", "setting": "Holstein 6 hr post-thaw (2nd block), .35 mg/ml", "value": 85}, {"measurement": "PIA", "setting": "Holstein 6 hr post-thaw (2nd block), .45 mg/ml", "value": 79}, {"measurement": "PIA", "setting": "Jersey 3 hr post-thaw, .25 mg/ml", "value": 62}, {"measurement": "PIA", "setting": "Jersey 3 hr post-thaw, .35 mg/ml", "value": 54}, {"measurement": "PIA", "setting": "Jersey 3 hr post-thaw, .45 mg/ml", "value": 71}]}
{"molecule": "vitamin B12", "values": [{"measurement": "PIA (percent intact acrosomes)", "setting": "0.5 mg/ml, 2 step F, 3 hrs post-thaw, Bulls 1-5", "value": "84% and 87% and 88% and 79% and 74%"}, {"measurement": "PIA", "setting": ".15 mg/ml, Holstein, 1M/straw, 3 hr post-thaw", "value": 66}, {"measurement": "PIA", "setting": ".15 mg/ml, Holstein, 2.1M/straw, 3 hr post-thaw", "value": 72}, {"measurement": "PIA", "setting": ".15 mg/ml, Jersey, 2.1M/straw, 3 hr post-thaw", "value": 63}, {"measurement": "PIA", "setting": ".25 mg/ml, Holstein, 1M/straw, 3 hr post-thaw", "value": 58}, {"measurement": "PIA", "setting": ".25 mg/ml, Holstein, 2.1M/straw, 3 hr post-thaw", "value": 76}, {"measurement": "PIA", "setting": ".25 mg/ml, Holstein, 5M/straw, 3 hr post-thaw", "value": 68}, {"measurement": "PIA", "setting": ".25 mg/ml, Jersey, 2.1M/straw, 3 hr post-thaw", "value": 78}, {"measurement": "PIA", "setting": ".35 mg/ml, Holstein, 1M/straw, 3 hr post-thaw", "value": 70}, {"measurement": "PIA", "setting": ".35 mg/ml, Holstein, 2.1M/straw, 3 hr post-thaw", "value": 60}, {"measurement": "PIA", "setting": ".35 mg/ml, Holstein, 5M/straw, 3 hr post-thaw", "value": 69}, {"measurement": "PIA", "setting": ".5 mg/ml, Holstein, 5M/straw, 3 hr post-thaw", "value": 50}]}
